From patent publication US5089392A, “Fluorogenic substrates for measurement of lysosomal enzyme activities within intact cells” (The United States of America as represented by of the …, priority 1990, dated 1992)

How the values were obtained:
[1] = pKa of the Im-DCH fluorophor (imidazole moiety, phenol, excited state); assay type: physicochemical
From the text: This term refers to moderately basic amines that concentrate (via acid-base equilibria) in low pH organelles such as lysosomes. For Im-DCH in compounds 4 and 5, the N-alkyl imidazole moiety, with a pKa of approximately 7, serves this function. This lysosomotropic property accounts for a first important attribute of enzyme substrates based upon Im-DCH that is, concentration within lysosomes to ensure that sufficient substrate is concentrated within the lysosomes in order to yield a readily detectable fluorescent signal.
(§1) Two other advantages of the fluorophors of the present invention derive from their physical and optical properties: (1) The low pKa of the phenol in Im-DCH (pKa-5.6) allows the maximal fluoroscence (excitation at 385 nm, detection at 460 nm) to be generated at physiological pH values as well as the low pH conditions within lysosomes. The extremely low pKa of the excited state of Im-DCH (pKa*=0.5) permits strong fluorescence to be measured in solutions as acidic as pH 2-3. By proper choice of spectral parameters (excitation at 365 nm, detection at 460 nm), the fluorescence becomes essentially independent of pH, with a fluorescence intensity at pH 2 that is 60% of the maximum. Ratio measurements of fluorescence (emission at 460 nm with excitation at 365 and 385 nm) also provide an estimate of the pH at the site of enzymatic hydrolysis. (2) Shifts in both the absorption and emission spectra occur upon the hydrolysis of glycosides of Im-DCH to give free Im-DCH. This permits the detection of small amounts of enzymatic hydrolysis in the presence of a very large excess of substrate. For example, at 385 nm excitation and 460 nm detection, the ratio of fluoroescence of the hydrolysis product, Im-DCH, to intact Im-DCH-β-Gal is 620:1. […] It is then deacetylated intracellularly to generate the enzymatically active substrate.

[2] = Fluorescence properties of Im-DCH and its galactoside; assay type: physicochemical; conditions: excitation at 365 nm, detection at 460 nm
From the text: as §1

[3] = target: T1, lysosomal β-galactosidase (Homo sapiens, UniProt P16278); assay: In vitro hydrolysis of the fluorogenic substrate by fibroblast lysates; assay type: biochemical
T1 sequence (P16278 29-677): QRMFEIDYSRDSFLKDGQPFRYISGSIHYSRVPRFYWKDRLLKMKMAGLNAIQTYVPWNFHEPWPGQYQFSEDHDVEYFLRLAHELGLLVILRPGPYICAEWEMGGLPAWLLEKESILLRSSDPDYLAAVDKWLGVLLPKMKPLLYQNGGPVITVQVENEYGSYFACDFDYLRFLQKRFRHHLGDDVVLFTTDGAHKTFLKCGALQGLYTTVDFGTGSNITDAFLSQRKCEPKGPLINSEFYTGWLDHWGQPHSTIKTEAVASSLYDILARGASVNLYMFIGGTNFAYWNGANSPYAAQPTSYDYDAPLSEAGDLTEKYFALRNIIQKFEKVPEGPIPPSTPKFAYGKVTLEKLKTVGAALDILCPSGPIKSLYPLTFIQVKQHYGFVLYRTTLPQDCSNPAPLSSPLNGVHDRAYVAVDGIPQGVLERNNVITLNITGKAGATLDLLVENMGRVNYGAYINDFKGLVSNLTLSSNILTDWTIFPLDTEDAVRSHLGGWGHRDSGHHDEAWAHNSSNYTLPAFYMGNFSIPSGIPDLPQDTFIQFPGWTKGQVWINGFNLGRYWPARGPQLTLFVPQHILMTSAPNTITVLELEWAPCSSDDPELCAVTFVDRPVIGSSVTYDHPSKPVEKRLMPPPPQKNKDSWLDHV
Method: The ability of 5 to serve as a fluorogenic substrate was tested using fibroblasts derived from patients with GM1 gangliosidosis, a hereditary deficiency of lysosomal β-galactosidase.

[4] = target: T1, lysosomal β-galactosidase; assay: Loading and intracellular hydrolysis in intact human skin fibroblasts in culture (fluorescence scanning of 96-well plates, fluorescence microscopy); assay type: cell-based
Method: Loading of Im-DCH-β-Gal(OAc)., 4, into human skin fibroblasts in culture was accomplished as follows. A 20 mM solution of 4 in ethanol was injected via syringe into McCoy's medium to give a 0.1 mM final concentration of fluorogenic substrate. The substrate was further dispersed in the medium by sonication with a W140 Sonifier (two 10 second pulses on power setting of 3). After incubation for 24 hours in serum-free McCoy's medium, cells were loaded with 4 by replacement of the medium with medium containing 0.1 mM substrate. Excess Im-DCH-β-Gal(OAc) may be removed by rinsing the cells, after which the cells may be further incubated in serum free McCoy's medium. […] Excitation (Xenon lamp) through a 360 nm bandpass filter with 10% transmittance at 310 and 385 nm. Emission through a chromatic beam splitter mirror that transmits fully above 405 nm plus a long pass filter with a transmittance of 1% at 408 nm and 10% at 412 nm. Enzymatic hydrolysis was followed by scanning of the loaded cells in a 96-well tissue culture plate with a Dynatech Microfluorometer. Quantitation of product formation was achieved by comparison of the fluorescence generated within individual wells with a standard curve that was obtained from known concentrations of the fluorescent product, 3.
Decreased activity was measured in GM1 cells (12-16% of normal) by fluorescence scanning of 96-well plates. […] In contrast, normal cells are nonfluorescent 24 hours after loading, having hydrolysed their substrate and released the fluorescent product into the media.

β-galactosidase = assay: Cell-free systems that have β-galactosidase activity; assay type: biochemical

Cl.N#Cc1c(O)ccc(OCCCCn2ccnc2)c1C#N [Compound 3, 2,3-dicyano-4-[4-(1-imidazolyl)-butoxy]-phenol hydrochloride salt]
pKa of the phenol [1]: 5.6 | pKa of the excited state (pKa*) ([1]; excited state): 0.5 | pKa of the N-alkyl imidazole moiety ([1]; lysosomotropic amine moiety of Im-DCH in compounds 4 and 5): approximately 7 | fluorescence intensity at pH 2 relative to the maximum [2]: 60%

N#Cc1c(OCCCCn2ccnc2)ccc(O[C@@H]2O[C@H](CO)[C@H](O)[C@H](O)[C@H]2O)c1C#N [Compound 5, β-D-galactopyranoside of 2,3-dicyano-4-[4-(1-imidazolyl)-butoxy]-phenol]
hydrolysis activity in GM1 gangliosidosis lysates relative to normal ([3]; lysates from four GM1 gangliosidosis fibroblast lines): 0.3-5.3 % of normal activity | hydrolysis by lysates from normal fibroblasts ([3]; lysates from three normal fibroblast lines): hydrolysed rapidly

CC(=O)OC[C@H]1O[C@@H](Oc2ccc(OCCCCn3ccnc3)c(C#N)c2C#N)[C@H](OC(C)=O)[C@@H](OC(C)=O)[C@H]1OC(C)=O [Compound 4, β-D-galactopyranoside of 2,3-dicyano-4-[4-(1-imidazolyl)-butoxy]-phenol-2,3,4,6-tetra-O-acetate]
hydrolysis activity in intact GM1 cells relative to normal ([4]; GM1 cells, fluorescence scanning of 96-well plates): 12-16 % of normal | intracellular localization of fluorescence in GM1 fibroblasts ([4]; GM1 fibroblasts, fluorescence microscopy): initial perinuclear clustering followed within 24 hours by sequestration into vacuoles | specificity of the impaired hydrolysis in GM1 gangliosidosis lines ([4]; comparison with cell lines expressing other lysosomal storage disorders): specific for their lysosomal β-galactosidase deficiency | uptake by intact fibroblasts ([4]; human skin fibroblasts, 0.1 mM substrate): taken up by intact fibroblasts | fluorescence of normal cells after loading ([4]; normal fibroblasts, 24 hours after loading): nonfluorescent | activity as a substrate in cell-free systems (β-galactosidase): inactive
